# Entries after “also recorded” stand apart in the source; their conditions may differ.
# Tests used:
# [1] = tested on: reactive oxygen species in NCI-H727 cells; experiment: Reactive oxygen species in NCI-H727 cells; format: cell-based, human; conditions: CI-988 (10 µM, Table II), Tiron unpublished (T. Moody)
# [2] = tested on: EGFR tyrosine phosphorylation in NCI-H727 cells; experiment: EGFR tyrosine phosphorylation; format: cell-based, human; conditions: for Inhibition of CCK-8-induced EGFR tyrosine phosphorylation, in words: NCI-H727 cells, concentration not given at this place; for Significance of inhibition of CCK-8-induced EGFR tyrosine phosphorylation: Fig. 2B
# [3] = tested on: ERK tyrosine phosphorylation in NCI-H727 cells; experiment: ERK tyrosine phosphorylation; format: cell-based, human; conditions: for Inhibition of CCK-8-induced ERK tyrosine phosphorylation: Fig. 2C; for Inhibition of CCK-8-induced ERK phosphorylation, in words / Inhibition of CCK-8-induced ERK phosphorylation (T. Moody, unpublished): NCI-H727 cells; for Inhibition of CCK-8-induced ERK phosphorylation, in words: concentration not given at this place
# [4] = tested on: SCLC; conditions: basal or CCK-8-stimulated growth; ref Moody and Jensen, 2001; cited from earlier work
# [5] = tested on: NCI-H727 cells; experiment: MTT proliferation assay, NCI-H727 cells
# [6] = tested on: NCI-H727 cells; experiment: Clonogenic assay, clonal growth of NCI-H727 cells; conditions: for Effect on CCK-8-stimulated increase in colony number: CI-988 3 µM or gefitinib 1 µM, CCK-8 10 nM
# [7] = tested on: cytosolic Ca2+ in NCI-H727 cells; experiment: Cytosolic Ca2+ in Fura-2AM loaded NCI-H727 cells; format: cell-based, human; conditions: for Effect on basal cytosolic Ca2+: CI-988 1 µM (Fig. 3D), L-364,718 concentration not printed (Fig. 3C)
# [8] = tested on: CCK2R; conditions: ref Innes and Snyder, 1980; cited from earlier work
# [9] = tested on: SCLC cells; conditions: ref Staley et al., 1990; cited from earlier work
# [10] = tested on: TGF α secretion from NCI-H727 cells; experiment: TGF α secretion from NCI-H727 cells; format: cell-based, human; conditions: preliminary data, T. Moody unpublished
# [11] = cited from earlier work
# [12] = tested on: GLC19 cells; conditions: literature discussion, ref Sethi et al., 1993; cited from earlier work
# [13] = tested on: NCI-H510 cells; conditions: 0.1 µM; ref Sethi et al., 1993; cited from earlier work
# [14] = tested on: CCK1R; conditions: ref Jensen et al., 1989; cited from earlier work
# [15] = tested on: AR42J cells; conditions: cited from earlier work
# [16] = 5 mM NAC or Tiron (Fig. 4A, B), p < 0.05 relative to CCK-8
# [17] = 10 µM as printed in legend (Fig. 4C)
molecule,measurement,setting,value
O=S(=O)(O)c1cc(O)c(O)c(S(=O)(=O)O)c1 [Tiron],"Inhibition of CCK-8-induced ROS increase, in words",[1],inhibited
same,Effect on basal EGFR tyrosine phosphorylation,[2]; 5 mM (Fig. 4A),no effect
same,Inhibition of CCK-8-induced EGFR transactivation,[2]; [16],inhibited significantly; also recorded: inhibited the increase in EGFR transactivation
same,"Inhibition of CCK-8-induced EGFR tyrosine phosphorylation, in words",[2],inhibited
same,"Inhibition of CCK-8-induced EGFR tyrosine phosphorylation, in words",[2]; listed as tiron,blocked
C[C@](Cc1c[nH]c2ccccc12)(NC(=O)OC1[C@H]2C[C@@H]3C[C@@H](C[C@H]1C3)C2)C(=O)NC[C@H](NC(=O)CCC(=O)O)c1ccccc1 (stereo partly drawn) [CI-988],Inhibition of CCK-8-induced ERK tyrosine phosphorylation,[3]; CI-988 1 µM,not 1 µM
same,Inhibition of CCK-8-induced ERK tyrosine phosphorylation,"[3]; CI-988 10 µM, p < 0.05 relative to CCK-8",significantly inhibited
same,"Inhibition of CCK-8-induced ERK phosphorylation, in words",[3],significantly inhibited
same,"Inhibition of CCK-8-induced ERK phosphorylation (T. Moody, unpublished)",[3],blocked
same,Effect on total ERK,"[3]; Western blot, Fig. 2A",no effect
same,Antagonism of gastrin-17-induced ERK tyrosine phosphorylation,[3]; data not shown,antagonized
same,Effect on SCLC growth,[4],inhibit
same,"Inhibition of CCK-8-induced ROS increase, in words",[1],blocked significantly; also recorded: inhibited
same,Potentiation of growth inhibitory effects of gefitinib,[5]; NCI-H727 cells,potentiated the growth inhibitory effects of gefitinib
same,Colony number + 10 nM CCK-8,"[6]; CI-988 3 uM + 10 nM CCK-8 (CCK-8 alone 74 ± 9), mean ± S.D. of 3 determinations",44 ± 5
same,Effect on CCK-8-stimulated increase in colony number,[6],reversed
same,Colony number,"[6]; CI-988 3 uM, no CCK-8, control 42± 6, mean ± S.D. of 3 determinations, 2 weeks",21 ± 3
same,Reduction of colony number,"[6]; CI-988 (3 µM), no CCK-8",50%
same,"Effect on NCI-H727 proliferation, in words",[6]; NCI-H727 cells,inhibit proliferation
same,"Effect on basal growth or growth stimulated by CCK-8, in words",[6]; NCI-H727 cells,inhibited the basal growth of NCI-H727 cells or that stimulated by CCK-8
same,Inhibition of CCK-8-induced EGFR tyrosine phosphorylation,[2]; CI-988 1 µM vs 0.1 µM CCK-8 (Fig. 2A),weakly
same,Significance of inhibition of CCK-8-induced EGFR tyrosine phosphorylation,[2]; CI-988 1 µM,not 1 µM
same,Inhibition of CCK-8-induced EGFR tyrosine phosphorylation,[2]; CI-988 10 µM vs 0.1 µM CCK-8 (Fig. 2A),strongly
same,Significance of inhibition of CCK-8-induced EGFR tyrosine phosphorylation,"[2]; CI-988 10 µM, p < 0.01 relative to CCK-8",significantly inhibited
same,"Inhibition of CCK-8-induced EGFR tyrosine phosphorylation, in words",[2],blocked; also recorded: significantly inhibited
same,Effect on total EGFR,"[2]; Western blot, Fig. 2A",no effect
same,Antagonism of gastrin-17-induced EGFR tyrosine phosphorylation,[2]; data not shown,antagonized
same,Effect on basal cytosolic Ca2+,[7],no effect
"Cc1cccc(NC(=O)N[C@@H]2N=C(c3ccccc3)c3ccccc3N(C)C2=O)c1 [L-365,260]",Effect on SCLC growth,[4],inhibit
same,"CCK2R antagonism, in words",[8],antagonized
same,Antagonism of effects of CCK-8 on SCLC cells,[9],blocked
"CC(=O)N[C@@H](CS)C(=O)O [NAC, N-acetylcysteine]",Effect on basal EGFR tyrosine phosphorylation,[2]; 5 mM (Fig. 4A),no effect
same,Inhibition of CCK-8-induced EGFR transactivation,[2]; [16],inhibited significantly; also recorded: inhibited the increase in EGFR transactivation
CNC(=O)[C@H](Cc1c[nH]c2ccccc12)NC(=O)[C@@H](CC(=O)NO)CC(C)C [GM6001],"Inhibition of CCK-8-induced ERK phosphorylation, in words",[3],significantly inhibited
same,Effect on CCK-8-stimulated secretion of TGF α,[10],inhibits
same,Effect on basal EGFR tyrosine phosphorylation,[2]; [17],no effect
same,Inhibition of CCK-8-induced EGFR tyrosine phosphorylation,"[2]; GM6001 1 µM as printed in text (Fig. 4C, D), p < 0.01 relative to CCK-8",significantly inhibited
same,Inhibition of CCK-8-induced EGFR transactivation,[2]; GM6001 10 µM as printed in legend of Fig. 4C,inhibited the increase in EGFR transactivation
same,"Inhibition of CCK-8-induced EGFR tyrosine phosphorylation, in words",[2],blocked; also recorded: significantly inhibited
gastrin,Effect on heparin binding (HB) EGF,"[11]; PKC-dependent, ref Sinclair et al., 2004",increases
same,Effect on COX-2 and prostaglandin E2 expression,"[11]; colon cancer cells, ref Colucci et al., 2005",increases COX-2 and prostaglandin E2 expression
same,Effect on MMP9 expression,"[11]; gastric epithelial cells, ref Wroblewski et al., 2002",increases
same,Effect on ELK-1 and COX-2 expression,"[11]; intestinal epithelial cells, ref Guo et al., 2002",increased ELK-1 and COX-2 expression
same,Effect on c-fos expression,"[11]; ref Stepan et al., 1999",increases c-fos expression
same,Effect on expression of HB-EGF and amphiregulin,"[11]; ref Tsutsui et al., 1997",increases
same,Effect on cytosolic Ca2+ in GLC19 cells,[12],no effect
same,"Effect on cytosolic Ca2+, in words","[7]; 10 nM, Fura-2AM, 37°C, representative of 3 others (Fig. 3A, B)",increased the cytosolic Ca^2+
same,Effect on cytosolic Ca2+ in NCI-H510 cells,[13],increased cytosolic Ca^2+
"CN1C(=O)[C@@H](NC(=O)c2cc3ccccc3[nH]2)N=C(c2ccccc2)c2ccccc21 [L-364,718]",Antagonism of effects of CCK-8 on SCLC cells,[9],"not L-364,718"
same,"CCK1R antagonism, in words",[14],antagonized
same,Effect on basal cytosolic Ca2+,[7],no effect
CC(C)(C)n1nc(-c2ccc(Cl)cc2)c2c(N)ncnc21 [PP2],"Inhibition of CCK-8-induced ERK phosphorylation, in words",[3],significantly inhibited
same,Inhibition of CCK-8-induced EGFR tyrosine phosphorylation,"[2]; 10 µM PP2 (Fig. 4C, D), p < 0.01 relative to CCK-8",significantly inhibited; also recorded: inhibited the increase in EGFR transactivation
same,Effect on basal EGFR tyrosine phosphorylation,[2]; [17],no effect
same,"Inhibition of CCK-8-induced EGFR tyrosine phosphorylation, in words",[2],blocked; also recorded: significantly inhibited
same,Effect on CCK-8-stimulated increase in P-Src and P-ERK in AR42J cells,"[15]; ref Ferrand et al., 2006",inhibited
COc1cc2ncnc(Nc3cccc(Cl)c3)c2cc1OC [AG1478],Effect on CCK-8-induced EGFR and ERK tyrosine phosphorylation in AR42J cells,"[15]; ref Piiper et al., 2003",inhibited
COc1cc2ncnc(Nc3ccc(F)c(Cl)c3)c2cc1OCCCN1CCOCC1 [Gefitinib],Increase in cytotoxicity of gefitinib in presence of CI-988,[5]; gefitinib with CI-988,approximately an order of magnitude
same,Effect on CCK-8-stimulated increase in colony number,[6],reversed
same,"Effect on basal growth or growth stimulated by CCK-8, in words",[6]; NCI-H727 cells,inhibited the basal growth of NCI-H727 cells or that stimulated by CCK-8
same,Reduction of colony number,"[6]; gefitinib (1 µM), no CCK-8",37%
COc1cccc(-c2cc(=O)c3ccccc3o2)c1N [PD98059],"Inhibition of CCK-8-induced ERK phosphorylation (T. Moody, unpublished)",[3],blocked
"EGF: epidermal growth factor, EGFR ligand (NSDSECPLSHDGYCLHDGVCMYIEALDKYACNCVVGYIGERCQYRDLKWWELR; UniProt P01133 971-1023, looked up)","EGFR tyrosine phosphorylation, in words","[2]; 0.1 µM (100 nM) ligand, 2 min, NCI-H727",strongly

# From paper PMC4479967 (Journal of molecular neuroscience : MN, 2015)
